Reference: PMC9981942, “Pharmacokinetics and tissue distribution of Ramulus Mori (Sangzhi) alkaloids in rats and its effects on liver enzyme activity” (Frontiers in Pharmacology, 2023)
Blank lines part the entries; values can stand above or below the compound they belong to.

Assays:
Test in all cases: in vitro
CYP1A2 [1] = target: T1, CYP1A2 (Homo sapiens, UniProt P05177); settings: microsomes, pH 7.4
T1 sequence (P05177 1-516): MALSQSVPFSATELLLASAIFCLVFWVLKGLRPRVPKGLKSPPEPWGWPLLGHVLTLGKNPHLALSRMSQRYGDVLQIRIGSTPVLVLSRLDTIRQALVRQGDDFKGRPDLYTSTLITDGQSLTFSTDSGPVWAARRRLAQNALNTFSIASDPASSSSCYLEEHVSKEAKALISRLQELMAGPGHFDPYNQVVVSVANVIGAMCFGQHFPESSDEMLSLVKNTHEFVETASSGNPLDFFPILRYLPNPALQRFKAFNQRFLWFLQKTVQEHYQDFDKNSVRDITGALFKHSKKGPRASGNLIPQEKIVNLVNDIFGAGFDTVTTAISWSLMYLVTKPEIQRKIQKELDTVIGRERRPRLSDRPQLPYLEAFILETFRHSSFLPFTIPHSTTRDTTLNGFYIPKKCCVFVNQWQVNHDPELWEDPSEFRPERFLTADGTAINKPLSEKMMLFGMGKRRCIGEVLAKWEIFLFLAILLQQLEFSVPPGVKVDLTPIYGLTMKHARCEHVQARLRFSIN

CYP1A2 [2] = target: T2, CYP1A2 (Rattus norvegicus, UniProt P04799); settings: liver microsomes, pH 7.4, probe phenacetin (50 μM)
T2 sequence (P04799 1-513): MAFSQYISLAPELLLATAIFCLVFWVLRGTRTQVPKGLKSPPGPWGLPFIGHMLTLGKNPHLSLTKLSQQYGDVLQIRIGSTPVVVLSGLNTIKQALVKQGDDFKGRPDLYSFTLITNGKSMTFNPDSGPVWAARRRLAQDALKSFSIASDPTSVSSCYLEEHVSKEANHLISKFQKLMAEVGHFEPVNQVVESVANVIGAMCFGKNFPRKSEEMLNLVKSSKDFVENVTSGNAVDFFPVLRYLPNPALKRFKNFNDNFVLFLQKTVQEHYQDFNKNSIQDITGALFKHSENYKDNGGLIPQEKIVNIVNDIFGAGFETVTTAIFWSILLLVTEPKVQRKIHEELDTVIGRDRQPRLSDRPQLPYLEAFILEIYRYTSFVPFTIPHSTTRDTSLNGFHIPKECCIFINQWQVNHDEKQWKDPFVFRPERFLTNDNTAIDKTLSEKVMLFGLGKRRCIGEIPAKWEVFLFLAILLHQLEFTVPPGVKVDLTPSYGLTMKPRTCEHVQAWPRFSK

CYP3A2 = target: T3, CYP3A2 (Rattus norvegicus, UniProt P05183); settings: liver microsomes, pH 7.4, probe midazolam (5 μM)
T3 sequence (P05183 1-504): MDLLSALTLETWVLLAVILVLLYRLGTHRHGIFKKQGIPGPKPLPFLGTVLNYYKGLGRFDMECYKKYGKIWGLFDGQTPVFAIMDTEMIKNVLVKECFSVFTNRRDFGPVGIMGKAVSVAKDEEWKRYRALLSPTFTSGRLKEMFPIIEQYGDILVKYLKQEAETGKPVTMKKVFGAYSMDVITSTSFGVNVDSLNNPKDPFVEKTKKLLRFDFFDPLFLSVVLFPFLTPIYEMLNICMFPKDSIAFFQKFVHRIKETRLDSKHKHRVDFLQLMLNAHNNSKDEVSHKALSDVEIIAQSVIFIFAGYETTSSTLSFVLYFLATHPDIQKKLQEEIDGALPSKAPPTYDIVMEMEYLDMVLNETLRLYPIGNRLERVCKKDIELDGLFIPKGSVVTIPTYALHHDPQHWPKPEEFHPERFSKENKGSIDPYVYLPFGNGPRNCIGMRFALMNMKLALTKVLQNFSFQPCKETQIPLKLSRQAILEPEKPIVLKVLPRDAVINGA

CYP2C6 = target: T4, CYP2C6 (Rattus norvegicus, UniProt P05178); settings: liver microsomes, pH 7.4, probe diclofenac sodium (20 μM)
T4 sequence (P05178 1-490): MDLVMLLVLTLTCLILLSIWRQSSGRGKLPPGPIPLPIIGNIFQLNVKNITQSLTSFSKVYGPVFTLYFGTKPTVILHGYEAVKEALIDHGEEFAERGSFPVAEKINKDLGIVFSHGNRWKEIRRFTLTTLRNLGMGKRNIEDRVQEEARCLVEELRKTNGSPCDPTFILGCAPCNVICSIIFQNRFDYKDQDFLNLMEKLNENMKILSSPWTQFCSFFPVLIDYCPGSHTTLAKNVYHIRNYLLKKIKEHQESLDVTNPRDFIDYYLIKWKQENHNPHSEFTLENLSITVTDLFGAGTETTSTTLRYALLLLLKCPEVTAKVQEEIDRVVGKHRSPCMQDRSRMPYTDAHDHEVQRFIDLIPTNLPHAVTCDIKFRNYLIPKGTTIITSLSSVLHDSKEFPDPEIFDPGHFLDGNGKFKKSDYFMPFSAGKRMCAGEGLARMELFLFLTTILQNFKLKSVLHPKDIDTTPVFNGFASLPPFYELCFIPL

SMILES: Cc1nc2c([nH]1)c(=O)n(C)c(=O)n2Cc1ccco1 [furafylline]
inhibition at 30 min, 10 μM (CYP1A2 [1]): 71.8%
inhibition at 30 min, 50 μM (CYP1A2 [2]): 66.3%

inhibition at 5 min, 1 μM (CYP3A2): 76.4%
SMILES: CC(=O)N1CCN(c2ccc(OCC3COC(Cn4ccnc4)(c4ccc(Cl)cc4Cl)O3)cc2)CC1 (stereo not shown) [ketoconazole]

inhibition at 10 min, 50 μM (CYP2C6): 88%
SMILES: Nc1ccc(S(=O)(=O)Nc2ccnn2-c2ccccc2)cc1 [sulfaphenazole]
